Measured values published in patent US10624867B2, “Transdermally-delivered combination drug therapy for pain” (BioChemics, Inc., priority 2017, dated 2020).

How the values were obtained:
[1] = tested on: CFA inflammation-induced mechanical hyperalgesia; assay: CFA inflammation model, mechanical response (von Frey stimulation), set A; type: in vivo, Sprague-Dawley rats; conditions: CFA rats
Description: (§1) Two parallel studies (two arms) were done, each with four treatment groups, with four Sprague-Dawley rats per group. The rats used were male rats weighing 175-200 grams. Half of the rats were given injections of 1:1 complete Freund's adjuvant (CFA) on day 0 to produce long-term inflammation of the left hindpaw; the other half of the rats were given spared nerve injury (SNI, transection of 2 of 3 branches of the sciatic nerve) in the lower thigh on day 0.
(§2) Before treatments, rats' baseline response thermal latencies (on a glass surface suspended above a moveable heat lamp) or mechanical thresholds (on a wire mesh surface suspended above a moveable electronic von Frey stimulator) were determined after 15 min acclimatization on the thermal or mechanical testing apparatuses.
(§3) The CFA model of persistent inflammatory hyperalgesia in one hindpaw of the rats was utilized (see Gold and Gebhart, Nature Medicine 16: 1248-1257, 2010). This model produces edema, reddening, inflammation, and behavioral hypersensitivity. Experimental groups of rats were anesthetized with isoflurane before receiving an intraplantar injection into the left hindpaw of 100 μl of CFA (1:1 with sterile PBS) using a sterile 0.5 ml syringe. The CFA model produced inflammatory signs accompanied by thermal and mechanical hyperalgesia in the injected hindpaw within six to eight hours. The hypersensitivity peaks at 3 days, which was the first testing day of the analgesic topical formulations in the CFA model.
(§4) One of four treatments was applied to each rat on days 3, 7 and 11 after CFA injection or on days 7, 14 and 21 after SNI application. […] For the formulations with ibuprofen and/or gabapentin, the formulation also contained vasodilators arginine and methyl nicotinate, chelator EDTA, solvents dimethyl acetamide and water, osmolyte potassium hydroxide, lipids soy bean oil and olive oil, and various other excipients including eucalyptol, gelcarin GP-379NF, glyceryl monostearate, menthol, methyl paraben, propylparaben, phenoxyethanol, permulen TR-1, phospolipon 90H, ST elastomer, urea, and Vitamin E TPGS.
For application of the topical formulation, the rats were anesthetized with isoflurane for 30 min. while the creams were applied to both hindpaws to minimize oral absorption as described in Nozaki-Taguchi et al., Anesthesiology 90: 225-234, 1999; Iadarola et al., NIDA Res. Monogr. 75: 406-409, 1986. […]
In these studies, the sensory responsiveness to thermal (radiant heat) stimuli was assessed in terms of time to elicit paw withdrawal. […] Sensory responses to mechanical stimulus (von Frey stimulation) were also assessed prior to CFA injection and following several days after inflammation (FIGS. 2A-2C) or nerve injury (FIGS. 4A-5C). […]

[2] = tested on: Complete Freund's Adjuvant (CFA)-induced thermal hyperalgesia; assay: CFA inflammation model, thermal response (paw withdrawal latency to radiant heat), set A; type: in vivo, Sprague-Dawley rats; conditions: for thermal antihyperalgesia: topical cream to hindpaw, day 3 at 2 and 4 hours after treatment
Protocol: Baselines were established for all rats for thermal response latency before intraplantar (i.pl.) injection of the inflammatory agent. Three days after injection of the inflammatory agent (CFA), the degree of thermal hypersensitivity was determined followed by topical application to anesthetized rats of i) the drug-free cream, creams containing ii) ibuprofen, iii) gabapentin, and each the combination of ibuprofen with gabapentin using a topical cream optimized for deep skin penetration/vascular access. Six experimental groups were used in total Application of ibuprofen cream served both as an active pharmacological agent and positive control throughout these studies. The drug formulation and control cream (negative control) was applied to the glabrous side of the rat hindpaw using a previously published method. Nozaki-Taguchi, N. and T. L. Yaksh., Characterization of the Antihyperalgesic Action of a Novel Peripheral Mu-opioid Receptor Agonist-loperamide, Anesthesiology, 90: 225-234, 1999; Iadarola, M. J., et al., Increased Spinal Cord Dynorphin mRNA During Peripheral Inflammation, NIDA Re.s Monogr., 75: 406-409, 1986.
Rats were isoflurane-anesthetized (1-2%) and the cream (0.2 g) applied gently with a finger for 1 minute to the glabrous skin of the hindpaw. For low drug concentrations, 5% formulations of all drugs were. For high drug concentrations, 10% cream formulations were employed. […] Upon recovery from anesthesia (within 10 minutes of cessation of anesthetic), rats were moved to plexiglass enclosures for sensory assessment. Efficacy was initially tested at 1, 2, 4, 8, 24 hours after cream treatment; depending on initial results. Time was revised to track the onset and offset of drug effects.
as §1, §2, §3
as §4, with “TPGS. […]” for “TPGS.”

[3] = day 11 at 2 hours after treatment
[4] = day 12 at 2 hours after treatment
[5] = CFA rats, days 7 and 12 post-CFA

SMILES	efficacy against mechanical hyperalgesia, agent given alone [1, 3]	efficacy against mechanical hyperalgesia, agent given alone [1, 4]	thermal antihyperalgesia (possible efficacy) on later days [2, 5]	thermal antihyperalgesia ([2]; CFA rats)	suppression of thermal hyperalgesia ([2]; CFA rats, transdermal delivery, drug alone)	reversal of hyperalgesia ([2]; CFA rats, cream applied for 20 minutes, 1 hour after treatment on day 3 post-CFA)	duration of beneficial impact of the drug ([2]; CFA rats, day 3 post-CFA)	hyperalgesia after 24 hours ([2]; CFA rats, day 3 post-CFA, 24 hours after treatment)	statistical significance of the effect ([2]; CFA rats, day 3 post-CFA, vs vehicle (ANOVA, Dunnett))	thermal antihyperalgesia (possible efficacy) on later days ([2]; CFA rats, days 7 and 11 post-CFA)	reversal of thermal hypersensitivity ([2]; FIGS. 1A-1C, at some time points during the testing period)
NCC1(CC(=O)O)CCCCC1 [gabapentin]	efficacious	efficacious	not repeated	borderline significant	failed to suppress						
CC(C)Cc1ccc(C(C)C(=O)O)cc1 (stereo not drawn) [ibuprofen, 2-[4-(2-methylpropyl)phenyl]propanoic acid]	efficacious	efficacious	not repeated	borderline significant		completely reversed	4 h	completely returned to the baseline level	statistically significant	not repeated	significant reversal
